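These data come from cells grown in 96-well plates and exposed to compound for 48 hours at five concentrations. GI50: concentration for 50% inhibition of growth.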 Activity calls are given as the source filed them. Rule as the data show it: active = GI50 up to about 1.1 µM and inactive = higher.
Tests used:
Test in all cases: inhibition of tumour cell growth, NCI panel, 48 h
HOP-92 = system: HOP-92
A549 = system: A549
Hs-578T = system: Hs-578T
HOP-62 = system: HOP-62
HL-60 = system: HL-60
K562 = system: K562
SNB-19 = system: SNB-19
MOLT-4 = system: MOLT-4
OVCAR-3 = system: OVCAR-3
MCF7 = system: MCF7
SK-MEL-5 = system: SK-MEL-5
UO-31 = system: UO-31
SF-295 = system: SF-295
BT-549 = system: BT-549
UACC-257 = system: UACC-257
SK-OV-3 = system: SK-OV-3
M14 = system: M14
NCI-H522 = system: NCI-H522
SF-268 = system: SF-268
MDA-MB-231 = system: MDA-MB-231
UACC-62 = system: UACC-62
MDA-MB-435 = system: MDA-MB-435
RPMI-8226 = system: RPMI-8226
LOX IMVI = system: LOX IMVI
RXF 393 = system: RXF 393
OVCAR-4 = system: OVCAR-4
CAKI-1 = system: CAKI-1
IGROV-1 = system: IGROV-1
ACHN = system: ACHN
SK-MEL-28 = system: SK-MEL-28
PC-3 = system: PC-3
NCI-H226 = system: NCI-H226
NCI-H23 = system: NCI-H23
TK-10 = system: TK-10
T47D = system: T47D
HCT-15 = system: HCT-15
NCI/ADR-RES = system: NCI/ADR-RES
SF-539 = system: SF-539
SN12C = system: SN12C
SW-620 = system: SW-620
MDA-N = system: MDA-N
A498 = system: A498
COLO 205 = system: COLO 205
U-251 = system: U-251
OVCAR-8 = system: OVCAR-8
OVCAR-5 = system: OVCAR-5
DU-145 = system: DU-145
KM12 = system: KM12
SR = system: SR
HCT-116 = system: HCT-116
HT-29 = system: HT-29
786-0 = system: 786-0
Malme-3M = system: Malme-3M
EKVX = system: EKVX
SK-MEL-2 = system: SK-MEL-2
CCRF-CEM = system: CCRF-CEM
NCI-H460 = system: NCI-H460
SNB-75 = system: SNB-75
HCC 2998 = system: HCC 2998

Measured: GI50

C=CCCCC1SC2=C(CC)CCCN2C1=O (configuration not stated)
inactive: HOP-92 36.9 µM | A549 41.6 µM | Hs-578T 47.9 µM | HOP-62 > 100 µM | HL-60 34.4 µM | K562 > 100 µM | SNB-19 73.5 µM | MOLT-4 56.8 µM | OVCAR-3 78.7 µM | MCF7 42.7 µM | SK-MEL-5 36.1 µM | UO-31 67.5 µM | SF-295 64 µM | BT-549 46.3 µM | UACC-257 27.6 µM | SK-OV-3 > 100 µM | M14 > 100 µM | NCI-H522 35.1 µM | SF-268 74.6 µM | MDA-MB-231 92 µM | UACC-62 81.3 µM | MDA-MB-435 84.3 µM | RPMI-8226 38.2 µM | LOX IMVI 89.7 µM | RXF 393 40.5 µM | OVCAR-4 65.6 µM | CAKI-1 > 100 µM | IGROV-1 > 100 µM | ACHN 89.1 µM | SK-MEL-28 76.6 µM | PC-3 45.2 µM | NCI-H226 > 100 µM | NCI-H23 49.1 µM | TK-10 84.3 µM | T47D 32.5 µM | NCI/ADR-RES 31.6 µM | SF-539 > 100 µM | SN12C > 100 µM | SW-620 77.4 µM | MDA-N 70.1 µM | A498 90.4 µM | COLO 205 54 µM | U-251 85.1 µM | OVCAR-8 > 100 µM | OVCAR-5 > 100 µM | DU-145 > 100 µM | KM12 86.7 µM | SR 57.7 µM | HCT-116 53.8 µM | HT-29 58.3 µM | 786-0 > 100 µM | Malme-3M 48.5 µM | EKVX 78.7 µM | SK-MEL-2 > 100 µM
40.2 µM: HCT-15

CN(/N=C/c1ccc(OCc2cccc(COc3ccc(C=O)cc3)n2)cc1)c1cnn(-c2ccc(Cl)cc2Cl)c(=O)c1Cl
inactive: A549 > 100 µM | Hs-578T > 100 µM | HOP-62 17.7 µM | HL-60 > 100 µM | K562 > 100 µM | CCRF-CEM > 100 µM | SNB-19 50.7 µM | MOLT-4 > 100 µM | OVCAR-3 > 100 µM | MCF7 > 100 µM | SK-MEL-5 > 100 µM | NCI-H460 > 100 µM | UO-31 > 100 µM | SF-295 20.2 µM | BT-549 66.7 µM | SNB-75 11.4 µM | UACC-257 > 100 µM | M14 > 100 µM | NCI-H522 > 100 µM | SF-268 56 µM | MDA-MB-231 20.7 µM | UACC-62 > 100 µM | MDA-MB-435 > 100 µM | RPMI-8226 53.1 µM | LOX IMVI 88.1 µM | RXF 393 21.5 µM | OVCAR-4 6.9 µM | CAKI-1 > 100 µM | IGROV-1 62.5 µM | ACHN 73.5 µM | SK-MEL-28 > 100 µM | PC-3 > 100 µM | NCI-H226 > 100 µM | NCI-H23 > 100 µM | TK-10 64.9 µM | T47D > 100 µM | NCI/ADR-RES 21.2 µM | SF-539 12.5 µM | SN12C > 100 µM | SW-620 > 100 µM | MDA-N > 100 µM | A498 48.5 µM | COLO 205 > 100 µM | U-251 26.9 µM | OVCAR-8 > 100 µM | OVCAR-5 > 100 µM | DU-145 > 100 µM | KM12 > 100 µM | SR > 100 µM | HCT-116 > 100 µM | HT-29 > 100 µM | 786-0 81.8 µM | Malme-3M 84.1 µM | HCC 2998 > 100 µM | EKVX 16 µM | SK-MEL-2 33 µM
> 100 µM: HCT-15
